Experimental findings from patent US8921307B2, “Synthetic linear apelin mimetics for the treatment of heart failure” (priority 2012, dated 2014) are described below.

Series [1] deals with T1, hAPJ (Homo sapiens, UniProt P35414).
T1 sequence (P35414 1-380): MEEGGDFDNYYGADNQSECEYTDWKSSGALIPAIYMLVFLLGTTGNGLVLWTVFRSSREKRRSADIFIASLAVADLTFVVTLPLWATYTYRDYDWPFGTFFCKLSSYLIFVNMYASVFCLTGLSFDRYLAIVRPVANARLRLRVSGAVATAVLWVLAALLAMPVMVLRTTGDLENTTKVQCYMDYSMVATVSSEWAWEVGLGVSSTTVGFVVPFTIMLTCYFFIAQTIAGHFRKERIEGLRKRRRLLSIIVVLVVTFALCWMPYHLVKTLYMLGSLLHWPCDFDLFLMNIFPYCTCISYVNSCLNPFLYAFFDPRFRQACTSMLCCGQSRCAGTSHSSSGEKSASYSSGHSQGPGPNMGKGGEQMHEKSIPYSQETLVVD
Kind of series: hAPJ Calcium Flux Assay. Type of series: cell-based. Particulars: Chem-5 APJ stable cells, FLIPR calcium flux stimulation; read-out: hAPJ Ca^2+ Flux EC50. As for the experimental part:
Chem-5 APJ stable cells (Millipore # HTS068C) were plated in 384-well format with 10,000 cells/well in 25 ul growth media, then grown 24 hours in a 37° C. tissue culture incubator. One hour before the assay, 25 ul/well FLIPR Calcium 4 dye (Molecular Devices R8142) with 2.5 mM probenecid was added, and cells were incubated one hour in a 37° C. tissue culture incubator. Peptides were solubilized in HBSS, HEPES & 0.1% BSA buffer, and serially-diluted 10-fold, from 50 uM to […], in triplicate. FLIPR Tetra was used to add peptide to the cells with dye (1:5, for final peptide concentrations ranging from 10 uM to […]). FLIPR dye inside the cells emitted fluorescence after binding to calcium, while fluorescence from outside the cells was masked. Fluorescence was measured using 470-495 excitation and 515-575 emission wavelengths on the FLIPR Tetra. Readings were done for 3 minutes total, beginning 10 seconds before the peptide addition. Maximum-minimum values were calculated and plotted for each peptide concentration, and GraphPad prism software was used to calculate EC50 values at the curve inflection points, for calcium flux stimulation by peptides.
(In general: Calcium flux is commonly read through the fluorescence of an indicator in the cells.)

Series [2] is described as follows: Surrogate Activity-Based Plasma Stability Assay. The series is classed as in vitro ADME. Particulars: rat, Surrogate activity-based Plasma stability t½. As for the experimental part: Stability half-life was then calculated by the formula, t½=0.693÷k Surrogate Activity-Based Plasma Stability Assay: […]
2) Calculate slope of value above and […]

Where a SMILES comes first, the peptide text is derived from it. [ ]: non-standard residue; d: D form. 2Nal = N[C@@H](Cc1ccc2ccccc2c1)C(=O)O; Cha = N[C@@H](CC1CCCCC1)C(=O)O; pGlu = O=C1CC[C@@H](C(=O)O)N1; dNle = CCCC[C@@H](N)C(=O)O; dNva = CCC[C@@H](N)C(=O)O; Aib = CC(C)(N)C(=O)O Where only a bound is given, the exact number is not on record here.

For `CCCC[C@@H](NC(=O)[C@@H]1CCCN1C(=O)CNC(=O)[C@H](CCCCN)NC(=O)[C@@H](Cc1ccccc1)NC(=O)[C@@H](C)NC(=O)[C@H](CC(C)C)NC(=O)[C@H](CCCNC(=N)N)NC(=O)[C@@H]1CCCN1C(=O)[C@H](CCCNC(=N)N)NC(=O)[C@@H]1CCC(=O)N1)C(=O)N[C@H](C)C(=O)N[C@H](Cc1ccccc1)C(=O)O` [Example 46, pE-R-P-R-L-a-f-K-G-P-nle-a-f-OH] ([pGlu]RPRL[dA][dF]KGP[dNle][dA][dF]-OH), the half-maximal effective concentration (EC50) in series [1] was found to be 9.2 nM. The compound further had a half-life in series [2] of 8.87 h.
Taken in the same sequence, the figures for `CCCC[C@H](NC(=O)[C@@H]1CCCN1C(=O)CNC(=O)[C@H](CCCCN)NC(=O)[C@H](Cc1c[nH]cn1)NC(=O)[C@@H](C)NC(=O)[C@H](CC(C)C)NC(=O)[C@H](CCCNC(=N)N)NC(=O)[C@@H]1CCCN1C(=O)[C@H](CCCNC(=N)N)NC(=O)[C@@H]1CCC(=O)N1)C(=O)N[C@H](C)C(=O)N[C@@H](Cc1ccccc1)C(=O)O` [Example 39, pE-R-P-R-L-a-H-K-G-P-Nle-a-F-OH] were 4.5 nM and 14.8 h.
The matching figures for `CCCC[C@@H](NC(=O)[C@@H]1CCCN1C(=O)CNC(=O)[C@H](CCCCN)NC(=O)[C@H](Cc1c[nH]cn1)NC(=O)[C@@H](C)NC(=O)[C@H](CC(C)C)NC(=O)[C@H](CCCNC(=N)N)NC(=O)[C@@H]1CCCN1C(=O)[C@H](CCCNC(=N)N)NC(=O)[C@@H]1CCC(=O)N1)C(=O)N[C@H](C)C(=O)N[C@H](Cc1ccccc1)C(N)=O` [Example 33, pE-R-P-R-L-a-H-K-G-P-nle-a-f-NH2]: 14.8 nM and over 16.7 h.
The matching figures for `CCCC[C@@H](NC(=O)[C@@H]1CCCN1C(=O)CNC(=O)[C@H](CCCCN)NC(=O)[C@H](Cc1c[nH]cn1)NC(=O)[C@@H](CCCCN)NC(=O)[C@H](CC(C)C)NC(=O)[C@H](CCCNC(=N)N)NC(=O)[C@@H]1CCCN1C(=O)[C@H](CCCNC(=N)N)NC(=O)[C@@H]1CCC(=O)N1)C(=O)N[C@H](C)C(=O)N[C@H](Cc1ccccc1)C(=O)O` [Example 11, pE-R-P-R-L-k-H-K-G-P-nle-a-f-OH] ([pGlu]RPRL[dK]HKGP[dNle][dA][dF]-OH): 1060 nM and over 16.7 h.
For the compound `CCCC[C@@H](NC(=O)[C@@H]1CCCN1C(=O)CNC(=O)[C@H](CCCCN)NC(=O)[C@@H](C)NC(=O)[C@@H](C)NC(=O)[C@H](CC(C)C)NC(=O)[C@H](CCCNC(=N)N)NC(=O)[C@@H]1CCCN1C(=O)[C@H](CCCNC(=N)N)NC(=O)[C@@H]1CCC(=O)N1)C(=O)N[C@H](C)C(=O)N[C@H](Cc1ccccc1)C(=O)O` [Example 48, pE-R-P-R-L-a-a-K-G-P-nle-a-f-OH] ([pGlu]RPRL[dA][dA]KGP[dNle][dA][dF]-OH), the EC50 in series [1] was 16.1 nM. This compound also returned a half-life in series [2] of 4.13 h.
Taken in the same sequence, the figures for `CCCC[C@@H](NC(=O)[C@@H]1CCCN1C(=O)CNC(=O)[C@H](CCCCN)NC(=O)[C@H](Cc1c[nH]cn1)NC(=O)[C@@H](C)NC(=O)[C@H](Cc1ccc2ccccc2c1)NC(=O)[C@H](CCCNC(=N)N)NC(=O)[C@@H]1CCCN1C(=O)[C@H](CCCNC(=N)N)NC(=O)[C@@H]1CCC(=O)N1)C(=O)N[C@H](C)C(=O)N[C@H](Cc1ccccc1)C(=O)O` [Example 25, pE-R-P-R-(2-Nal)-a-H-K-G-P-nle-a-f-OH] ([pGlu]RPR[2Nal][dA]HKGP[dNle][dA][dF]-OH) were 69.2 nM and 4.03 h.
As for `CCCC[C@@H](NC(=O)[C@@H]1CCCN1C(=O)CNC(=O)[C@H](CCCCN)NC(=O)C(C)(C)NC(=O)[C@H](CO)NC(=O)[C@H](CC(C)C)NC(=O)[C@H](CCCNC(=N)N)NC(=O)[C@@H]1CCCN1C(=O)[C@H](CCCNC(=N)N)NC(=O)[C@@H]1CCC(=O)N1)C(=O)N[C@H](C)C(=O)N[C@@H](Cc1ccccc1)C(=O)O` [Example 37, pE-R-P-R-L-S-Aib-K-G-P-nle-a-F-OH] ([pGlu]RPRLS[Aib]KGP[dNle][dA]F-OH), the concentration for a half-maximal effect (EC50) in series [1] was determined as 3.9 nM. For the same compound, the half-life in series [2] came out at 8.72 h.
`CCCC[C@@H](NC(=O)[C@@H]1CCCN1C(=O)CNC(=O)[C@H](CCCCN)NC(=O)[C@H](Cc1c[nH]cn1)NC(=O)[C@@H](C)NC(=O)[C@H](CC(C)C)NC(=O)[C@H](CCCNC(=N)N)NC(=O)[C@@H]1CCCN1C(=O)[C@H](CCCNC(=N)N)NC(=O)[C@@H]1CCC(=O)N1)C(=O)N[C@H](Cc1ccccc1)C(=O)O` [Example 6, pE-R-P-R-L-a-H-K-G-P-nle-f-OH]: in series [1], the EC50 came out at 3.1 nM. This compound also returned a half-life in series [2] of over 16.7 h.
In series [2], `CCCC[C@@H](NC(=O)[C@@H]1CCCN1C(=O)CNC(=O)[C@H](CCCCN)NC(=O)[C@H](Cc1c[nH]cn1)NC(=O)[C@@H](C)NC(=O)[C@H](CC(C)C)NC(=O)[C@H](CCCNC(=N)N)NC(=O)[C@@H]1CCCN1C(=O)[C@H](CCCNC(=N)N)NC(=O)[C@@H]1CCC(=O)N1)C(=O)NCCc1ccccc1` [Example 32, pE-R-P-R-L-a-H-K-G-P-nle-NH(Phenethyl)] displayed a half-life of 0.795 h.
For `CCCC[C@@H](NC(=O)[C@@H]1CCCN1C(=O)CNC(=O)[C@H](CCCCN)NC(=O)[C@H](Cc1c[nH]cn1)NC(=O)[C@@H](C)NC(=O)[C@H](CC(C)C)NC(=O)[C@H](CCCNC(=N)N)NC(=O)[C@@H]1CCCN1C(=O)[C@H](CCCNC(=N)N)NC(=O)[C@@H]1CCC(=O)N1)C(=O)N[C@H](CC)C(=O)N[C@H](Cc1ccccc1)C(=O)O` [Example 45, pE-R-P-R-L-a-H-K-G-P-nle-abu-f-OH], the EC50 in series [1] was 2.4 nM. For the same compound, the half-life in series [2] was over 16.7 h.
Taken in the same sequence, the figures for `CCCC[C@@H](NC(=O)[C@@H]1CCCN1C(=O)CNC(=O)[C@H](CCCCN)NC(=O)[C@H](Cc1c[nH]cn1)NC(=O)[C@@H](CO)NC(=O)[C@H](CC(C)C)NC(=O)[C@H](CCCNC(=N)N)NC(=O)[C@@H]1CCCN1C(=O)[C@H](CCCNC(=N)N)NC(=O)[C@@H]1CCC(=O)N1)C(=O)N[C@H](C)C(=O)N[C@H](Cc1ccccc1)C(=O)O` [Example 12, pE-R-P-R-L-s-H-K-G-P-nle-a-f-OH] ([pGlu]RPRL[dS]HKGP[dNle][dA][dF]-OH) were 0.9 nM and over 16.7 h.
Taken in the same sequence, the figures for `CC(C)C[C@H](NC(=O)[C@H](CCCNC(=N)N)NC(=O)[C@@H]1CCCN1C(=O)[C@H](CCCNC(=N)N)NC(=O)[C@@H]1CCC(=O)N1)C(=O)N[C@H](C)C(=O)N[C@@H](Cc1c[nH]cn1)C(=O)N[C@@H](CCCCN)C(=O)NCC(=O)N1CCC[C@H]1C(=O)N[C@H](Cc1ccccc1)C(=O)N[C@H](C)C(=O)N[C@H](Cc1ccccc1)C(=O)O` [Example 57, pE-R-P-R-L-a-H-K-G-P-f-a-f-OH] ([pGlu]RPRL[dA]HKGP[dF][dA][dF]-OH) were 1.5 nM and over 16.7 h.
Taken in the same sequence, the figures for `CCCC[C@@H](NC(=O)[C@@H]1CCCN1C(=O)CNC(=O)[C@H](CCCCN)NC(=O)[C@H](Cc1c[nH]cn1)NC(=O)[C@@H](CCC)NC(=O)[C@H](CC1CCCCC1)NC(=O)[C@H](CCCNC(=N)N)NC(=O)[C@@H]1CCCN1C(=O)[C@H](CCCNC(=N)N)NC(=O)[C@@H]1CCC(=O)N1)C(=O)N[C@H](C)C(=O)N[C@H](Cc1ccccc1)C(=O)O` [Example 63, pE-R-P-R-Cha-nva-H-K-G-P-nle-a-f-OH] ([pGlu]RPR[Cha][dNva]HKGP[dNle][dA][dF]-OH) were 9.4 nM and 3.75 h.
On to `CCCC[C@H](NC(=O)[C@@H]1CCCN1C(=O)CNC(=O)[C@H](CCCCN)NC(=O)[C@H](Cc1c[nH]cn1)NC(=O)[C@@H](C)NC(=O)[C@H](CC(C)C)NC(=O)[C@H](CCCNC(=N)N)NC(=O)[C@@H]1CCCN1C(=O)[C@H](CCCNC(=N)N)NC(=O)[C@@H]1CCC(=O)N1)C(=O)N[C@H](Cc1ccccc1)C(=O)O` [Example 35, pE-R-P-R-L-a-H-K-G-P-Nle-f-OH], for which the EC50 in series [1] is 10.7 nM. Further, the half-life in series [2] is over 16.7 h.
Taken in the same sequence, the figures for `CCCC[C@H](NC(=O)[C@@H]1CCCN1C(=O)CNC(=O)[C@H](CCCCN)NC(=O)C(C)(C)NC(=O)[C@H](CO)NC(=O)[C@H](CC(C)C)NC(=O)[C@H](CCCNC(=N)N)NC(=O)[C@@H]1CCCN1C(=O)[C@H](CCCNC(=N)N)NC(=O)[C@@H]1CCC(=O)N1)C(=O)N1CCC[C@H]1C(=O)N[C@H](Cc1ccccc1)C(=O)O` [Example 41, pE-R-P-R-L-S-Aib-K-G-P-Nle-P-f-OH] were 4.5 nM and 0.703 h.
Taken in the same sequence, the figures for `CCCC[C@@H](NC(=O)[C@@H]1CCCN1C(=O)CNC(=O)[C@H](CCCCN)NC(=O)[C@H](Cc1c[nH]cn1)NC(=O)[C@@H](CC(=O)O)NC(=O)[C@H](CC(C)C)NC(=O)[C@H](CCCNC(=N)N)NC(=O)[C@@H]1CCCN1C(=O)[C@H](CCCNC(=N)N)NC(=O)[C@@H]1CCC(=O)N1)C(=O)N[C@H](C)C(=O)N[C@H](Cc1ccccc1)C(=O)O` [Example 8, pE-R-P-R-L-d-H-K-G-P-nle-a-f-OH] ([pGlu]RPRL[dD]HKGP[dNle][dA][dF]-OH) were 7.7 nM and over 16.7 h.

The EC50 is the concentration that produces a half-maximal response. The half-life is the time in which the quantity being followed falls by half. Lower therefore signals rapid decline.
